Entries after “also recorded” stand apart in the source; their conditions may differ. Where two headings read alike, the source gives them in different places.
Experiments:
clinical = conditions: human, in vivo; for AUC(0-t): SS AUC0-24 (ng * h/mL)
[1] = mouse, in vivo, 1 mg/kg
[2] = Ninety-day toxicity study in rats; type: in vivo, rat
Procedure: (§1) For rats, the compound was administered at a dose of 1, 3, or 10 mg/kg/day.

[3] = Ninety-day toxicity study in dogs; type: in vivo, dog
Procedure: as §1
For dogs, the compound was administered at a dose of 1, 5, or 15 mg/kg/day.

[4] = test system: relapsed or refractory acute myeloid leukemia; conditions: for Efficacy: Human, by comparison with efficacious exposure in mice
Description: (§2) The study was open labeled and designed to determine the safety, tolerability, dose limiting toxicity (DLT), pharmacokinetics and pharmacodynamics of escalating doses. […] If two or more patients in the expanded cohort experiences first course DLT, no further patients will enroll at that dose and the next lower dose level will be declared the maximum tolerated dose (MTD). Primary endpoints for the study are safety, tolerability, dose limiting toxicity (DLT), and PK. Secondary endpoint is PD.

[5] = Phase I clinical trial, safety and tolerability
Description: as §2

[6] = Mouse oral pharmacokinetics / exposure
[7] = test system: subcutaneous MV4-11 tumors
Procedure: Xenograft was initiated from MV4-11 FLT3-dependent human leukemia cells cultured in Iscove's Modified Dulbecco's medium supplemented with 10% heat-inactivated fetal bovine serum, 100 units/mL penicillin G, 100 μg/mL streptomycin sulfate, 0.25 μg/mL amphotericin B, 2 mM glutamine, 0.075% sodium bicarbonate, and 25 μg/mL gentamicin. Tumor cells were maintained in humidified atmosphere of 95% air and 5% CO2 at 37° C. The cells were harvested during logarithmic phase growth and resuspended at a concentration of 5×10^7 cells/mL in 50% Matrigel matrix (BD Biosciences) and 50% PBS. MV4-11 cells (1×10^7) were implanted subcutaneously into the right flank of each test mouse and the growth of tumors was monitored. Twelve days later, on Day 1 of the study, mice were placed in eight groups each consisting of ten mice with individual tumor sizes of 126 to 221 mm^3 and group mean tumor size of 174 mm^3, tumor volume calculated as a product of width×width×length in mm of an MV4-11 tumor. […] Each dose of drug was given in a volume of 0.2 mL per 20 g of body weight (10 mL/kg) and was adjusted for the body weight of the animal. Each animal was sacrificed when its tumor reached the predetermined endpoint size of 1,000 mm^3 or on the last day of the study (Day 59), whichever came first.
In a follow-on study at the 10 mg/kg oral dose, tumor size was monitored for an additional 60 days after dosing was discontinued.

in vivo = conditions: mouse, plasma, oral, 1 mg/kg
[8] = Phase I clinical trial, human oral pharmacokinetics; conditions: in vivo, 12 mg
RS4-11 cell line = conditions: read-out: IC50 (nM), Proliferation, RS 4, 48 hour incubation
[9] = in vivo
[10] = follow-on study, 10 mg/kg oral, monitored 60 days after dosing discontinued, ten animals

Compound `CC(C)(C)c1cc(NC(=O)Nc2ccc(-c3cn4c(n3)sc3cc(OCCN5CCOCC5)ccc34)cc2)no1` [compound of Formula I, N-(5-tert-butyl-isoxazol-3-yl)-N′-{4-[7-(2-morpholin-4-yl-ethoxy)imidazo[2,1-b][1,3]benzothiazol-2-yl]phenyl}urea] has a half-life (clinical; 12 mg) of ~67.2 h, an AUC(0-t) (clinical; 12 mg) of 757 ng·h/mL and a half-life (clinical; 18 mg) of 24 to 67.2 h. For the same compound, the AUC(0-t) (clinical; 18 mg) was 1380 ng·h/mL, the “ΔT” value [1] was 6 h and the “elevations in liver function tests (LFTS)” value ([2]; high dose (10 mg/kg/day)) was 2- to 3 folds. For the same compound, the neutropenia ([2]; high dose (very mild anemia)) was “Sustained neutropenia”, the clinical signs ([2]; low and middle doses (1, 3 mg/kg/day), 90 days) was “No significant clinical signs were observed” and the AUC at 90 days ([2]; rat, in vivo, 10 mg/kg/day, high dose, read-out: AUC at which LFT elevations were produced) was ≥ 30 µM·h. For the same compound, the half-life ([2]; rat, in vivo, read-out: terminal half-life (converted)) was 5.7 h, the AUC ([3]; dog, in vivo, 15 mg/kg/day, high dose, read-out: AUC at which LFT elevations were produced) was ≥ 30 µM·h and the half-life ([3]; dog, in vivo, read-out: terminal half-life (converted)) was 5.9 h. The weight gain suppression ([3]; high dose) was 10%, the “elevations in liver function tests (LFTS)” value ([3]; high dose (15 mg/kg/day)) was 3 to 6 folds and the neutropenia ([3]; high dose (very mild anemia)) was “Sustained neutropenia”. The clinical signs ([3]; low and middle doses (1, 5 mg/kg/day), 90 days) was “No significant clinical signs were observed”, the hematological improvement ([4]; Cohort 2, 18 mg, individual patients) was “major hematological improvement; also recorded: minor hematological improvement” and the Efficacy ([4]; 12 mg) was “Possible”. For the same compound, the Efficacy ([4]; 18 mg) was “Possible”, the “patients with hematological improvement” value ([4]; cohort 2 (18 mg)) was “three” and the “patients with complete response (CR)” value ([4]; first 45 pts) was “Four”. For the same compound, the “responders that were WT” value ([4]; human, in vivo) was “five”, the “non-responding patients with ITD mutations with initial rapid clearing of peripheral blasts” value ([4]; intermittent dosing) was “Six of the 9” and the deaths ([5]; Cohorts 1 and 2, one unrelated fungal infection, one congestive heart failure possibly drug related) was “Two”. For the same compound, the “Grade 1 (mild) drug-related adverse events: instance of cough” value ([5]; human, in vivo) was “one”, the “Grade 1 (mild) drug-related adverse events: instance of decreased appetite” value ([5]; human, in vivo) was “one” and the “Grade 1 (mild) drug-related adverse events: instance of disgeusia” value ([5]; human, in vivo) was “one”. For the same compound, the “Grade 1 (mild) drug-related adverse events: instances of abdominal distension/constipation” value ([5]; human, in vivo) was “two”, the “Grade 1 (mild) drug-related adverse events: instances of nausea/vomiting” value ([5]; human, in vivo) was “two” and the “dose limiting toxicity (DLT)” value ([5]; human, in vivo) was “reported as a DLT”. The “grade of other possibly drug-related AEs” value ([5]; human, in vivo) was ≤ 2 grade, the hematological toxicity ([5]; human, in vivo) was “no hematological toxicity was observed” and the MTD ([5]; up to 450 mg/day, either schedule) was “has not yet been observed”. The “SS Cp” value ([6]; Mouse, 1 mg/kg) was 143 ng/mL, the “efficacious plasma levels over the MV4;11 IC50” value ([6]; mice, efficacious dose 1 mg/kg) was “about 800 fold” and the “duration of steady state exposure” value ([6]; mouse) was 6 h. For the same compound, the tumor response ([7]; 1 mg/kg (3 mg/m^2, p.o., QD)) was “tumor growth inhibition”, the tumor response ([7]; 3 mg/kg p.o. QD for 28 days) was “tumor regression” and the tumor response ([7]; 10 mg/kg p.o. QD for 28 days) was “tumor regression”. The Efficacy ([7]; Mouse, 1 mg/kg) was “Yes”, the complete responses [7, 10] was “eight” and the partial responses [7, 10] was “two”. For the same compound, the AUC (in vivo) was ~3.2 µM·h, the AUC(0-t) (in vivo) was 1790 ng·h/mL and the Cmax [8] was 11.2 ng/mL. For the same compound, the IC50 (RS4-11 cell line) was 1000 nM, the “duration of steady state exposure” value ([9]; human) was 24 h and the “plasma exposure versus dose” value ([9]; human) was “dose proportional”. For the same compound, the bioavailability in humans ([9]; human, po, 12 mg) was “good bioavailability” and the human bioavailability ([9]; 18 mg) was “good human bioavailability”.

Reference: US7968543B2 (priority 2007, dated 2011)
